Assay results taken from paper PMC12841663, “Antiprotozoal Potential of Cultivated Geranium macrorrhizum Against Giardia duodenalis, Trichomonas gallinae and Leishmania infantum” (International Journal of Molecular Sciences, 2026).
≈ marks a conversion by molar mass, not a printed value. Entries after “also recorded” stand apart in the source; their conditions may differ.

Legend:
[1] = Cytotoxicity of germacrone on DH82 macrophages (MTT); type: cell-based, canine; details: dog, DH82 macrophages; 48 h treatment; MTT; R^2 98.4
Procedure: (§1) Canine DH82 (ATCC®-CRL-10389TM) macrophages were maintained in Dulbecco’s modified Eagle’s medium (DMEM) (Thermo Fisher Scientific, Waltham, MA, USA) supplemented with 10% heat-inactivated FBS (Thermo Fisher Scientific, Waltham, MA, USA), and Pen-Strep at 37 °C in 5% CO2.
(§2) DH82 canine macrophages (5 × 10^4 per well) were seeded in 96-well plates in DMEM and kept overnight at 37 °C and 5% CO2. After washing with PBS, germacrone was added in varying concentrations (10, 50 and 100 μg/mL). After 48 h of treatment, cell viability was determined by the MTT method using a spectrophotometer (Multiskan EX, Thermo Electron Corporation, Vantaa, Finland) at 570 nm. The results were expressed as the cytotoxic concentration of 50% of the cell population (CC50). Amphotericin B (Gibco, Thermo Fisher Scientific, Grand Island, NY, USA) at 1 μg/mL was used as the reference drug. The assays were performed in two independent experiments, each in quadruplicate.

DH82 canine macrophages = experiment: as above; type: cell-based; details: at concentrations of 50 and 100 μg/mL
Procedure: as §1, §2

[2] = tested on: G. duodenalis trophozoites; experiment: Anti-Giardia activity assay (MTT viability); type: cell-based; details: pure compounds
Procedure: Anti-Giardia (AG) activity assays were conducted on G. duodenalis trophozoites from the ATCC® 30957 strain (assemblage A), using flat-bottom microwell plates in quadruplicate. […] Incubation was carried out for 24 h at 37 °C. EOs and pure compounds were solved in DMSO (Sigma, Madrid, Spain) (<1% final concentration). […] Trophozoites/promastigotes viability was assessed using the modified MTT colorimetric assay, as described previously in the literature, with results further validated by microscopic examination. The plate was analyzed in a spectrophotometer at a wavelength of 570 nm. The percentage of antiparasitic activity was calculated as growth inhibition, using the following formula: % AT = 100 - [(Ap - Ab) ÷ (Ac - Ab)] × 100, where Ap is the absorbance of the tested product, Ab the absorbance of the blank and Ac the absorbance of the control wells (culture without treatment). […] Metronidazole (Acros Organics, Madrid, Spain) served as a reference compound for anti-Giardia activity and Anti-Trichomonas activity and amphotericin B for anti-Leishmania activity. Data was analyzed using STATGRAPHICS Centurion XIX ([…].com) (Statgraphics Technologies, Inc., The Plains, VA, USA). The mammalian cells and trophozoites viability were tested with each compound in a dose-response experiment to calculate their relative potency (CC50 or IC50 value, respectively).

T. gallinae trophozoites = experiment: Morphological evaluation by light microscopy (Diff-Quik), T. gallinae; type: cell-based, Trichomonas gallinae; details: germacrone 100 µg/mL
Text: At each time point, quadruplicates were assigned per condition: growth control, germacrone, and the corresponding positive control (metronidazole or amphotericin B). For microscopy, quadruplicate wells corresponding to the same condition/time point were pooled prior to centrifugation to obtain sufficient biomass and a representative pellet for smear preparation. Pooled samples per condition/time point were centrifuged, resuspended in FBS and spread onto microscope slides. Once dried, samples were fixed and stained with Diff-Quik (Medion Diagnostic AG, […], Switzerland) following the manufacturer's instructions. Additionally, three wells per condition (triplicates) were used for the MTT assay, with absorbance measured by spectrophotometry after 48 h. Morphological changes were analyzed using light microscopy. Experiments were performed as independent biological replicates on different plates, and one Diff-Quik stained smear was obtained per condition and time point per biological replicate. For morphometric analysis, a total of 30 trophozoites per condition and time point were measured across the independent biological replicates and were selected by consecutive sampling during a predefined serpentine (zig-zag) scan across the preparation. Up to two eligible trophozoites per field (intact, well-focused and non-overlapping) were measured in sequential fields until n = 30 was reached, avoiding subjective selection of “representative” cells. Overlapping, partially visible, out-of-focus, edge-of-field, or debris-obscured trophozoites were excluded a priori. Trophozoites were photographed using a researcher's mobile phone mounted to the microscope ocular. Calibration was performed at the same magnification using a stage micrometre and applied in ImageJ v. 1.54d. One Diff-Quik stained smear was obtained per condition/time point per biological replicate Cell length, cell width, cell surface, nuclear length, nuclear width, axoneme (only Giardia), and length of axostyle (only T. gallinae) were measured with ImageJ software, and the data were recorded in an Excel database for statistical analysis. The Shapiro-Wilk test was used to assess the normality of the morphological variables. When data followed a normal distribution, Student's t-test was applied; otherwise, non-parametric tests, such as the Mann-Whitney U test, was used. Values of p < 0.05 were considered significant. For the morphological analysis, the mean, standard deviation, median, and interquartile range were calculated using SPSS version 20 (IBM Corp., Armonk, NY, USA).

[3] = metronidazole 10 µg/mL, 0.5 and 48 h, control DMSO 1%

**Q.** Which results are given for `CC(C)=C1C/C=C(\C)CC/C=C(\C)CC1=O` [Compound 2, germacrone]?
**A.** CC50 at 48 h [1]: 12.9 µg/mL (≈ 59.1 µM); effect on canine macrophages (DH82 canine macrophages): lethal; IC50 [2]: 55.2 µg/mL (≈ 253 µM); axostyle length vs control (T. gallinae trophozoites; [3]): decreased at 0.5 h; also recorded: after 48 h, it increased; cell length vs control (T. gallinae trophozoites; [3]): increase after 48 h; cell surface area vs control (T. gallinae trophozoites; [3]): decreased transiently at 0.5 h but increased at 48 h; cell width vs control (T. gallinae trophozoites; [3]): significant decrease exclusively in germacrone-treated parasites compared to the control at 0.5 h; nuclear length vs control (T. gallinae trophozoites; [3]): increased upon germacrone exposure; nuclear width vs control (T. gallinae trophozoites; [3]): diminished at 0.5 h; also recorded: By 48 h, nuclear width increased; morphological changes (light microscopy) (T. gallinae trophozoites; 48 h of exposure, Diff-Quik): elongation of the cytoplasm and the nucleus
